Holding throughout (test): NCI anticancer screen, dose series, 48 h
The test system of assay [1] is PC-3 prostate.
The test system of assay [2] is SK-MEL-2 melanoma.
The test system of assay [3] is HCT-116 colon.
In assay [4] the test system is MCF7 breast.

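All cell lines were grown in 96-well plates and treated with compound for 48 hours. Abbreviation: GI50, concentration required for 50% inhibition of growth. The concentration for full growth arrest is given as TGI.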

For `C=C1SC(=Nc2ccccc2Cl)N(C(=O)c2sc3ccccc3c2Cl)C12CCCCC2`, the GI50 in assay [1] was 4.51 µM; in assay [2] it was 15.8 µM; in assay [3], 7.61 µM; in assay [4] it was 3.95 µM. Moreover, the TGI in assay [1] was over 100 µM; in assay [2] it was 58.8 µM; in assay [3], over 100 µM; in assay [4], over 100 µM.

Take `Nc1ccc(COC(O)CN2CCCCC2)cc1[N+](=O)[O-]` (stereo unspecified): the TGI in assay [1], in assay [2], in assay [3] and in assay [4] was over 100 µM each time.

With `Cc1nc2ccccn2c1NC(=O)NNC(=S)Nc1ccc(F)cc1`, the GI50 in assay [1], in assay [2], in assay [3] and in assay [4] was over 100 µM each time. For the same compound, the TGI in assay [1], in assay [2], in assay [3] and in assay [4] was over 100 µM throughout.

On to `O=C(/C=C1\C(=O)N(Cc2ccccc2)c2ccccc21)c1ccc(OCCN2CCCCC2)cc1`, for which the results for the GI50 in assay [1], in assay [2] and in assay [3] were 1.85 µM, 11.7 µM and 1.3 µM, respectively. Besides, the TGI in assay [1] turned out to be 3.92 µM; in assay [2], 24.3 µM; in assay [3] it was 2.67 µM.

As to `C[C@]12CC[C@H]3[C@@H](CC4SC(N)=NC45C/C(=N/NC(N)=O)CC[C@]35C)[C@@H]1CCC2=O` (stereo partly specified), the GI50 in assay [1] was 1.25 µM; in assay [2] it was 1.98 µM; in assay [3], 2.09 µM; in assay [4], 1.52 µM. Further, the TGI in assay [1] came out at 2.75 µM; in assay [2], 4.58 µM; in assay [3] it was 4.35 µM; in assay [4] it was 3.14 µM.

For `ClCc1ccccc1Cn1cnc2c(Cl)ncnc21`, the GI50 in assay [1] is 3.03 µM; in assay [2], 2.76 µM; in assay [3] it was 1.91 µM; in assay [4], 11.1 µM. The TGI in assay [1] is 10.5 µM; in assay [2], 18.1 µM; in assay [3], 3.69 µM; in assay [4] it was over 100 µM.

Turning to `C=C1C(=O)O[C@H]2[C@H]1CC/C(COC(=O)CCCc1c[nH]c3ccccc13)=C\CC[C@@]1(C)O[C@@H]21`, the GI50 in assay [1] was 1.92 µM; in assay [2], 1.96 µM; in assay [3] it was 0.963 µM; in assay [4] it was 1.42 µM. Further, the TGI in assay [1] was 4.62 µM; in assay [2], 5.39 µM; in assay [3], 2.36 µM; in assay [4], 3.85 µM.

In the case of `Cc1ccc2c(c1)C(=O)c1c-2c(OCCCN(C)C)nc2ccccc12`, the GI50 in assay [1] was 2.26 µM; in assay [2], 11.7 µM; in assay [3], 0.718 µM; in assay [4] it was 0.609 µM. Besides, the TGI in assay [1] was 7.65 µM; in assay [2] it was 27.4 µM; in assay [3], 2.12 µM; in assay [4], 2.03 µM.

As to `CN(C)CCCC1(c2ccc(F)cc2)OCc2cc(-c3cc4ccccc4s3)ccc21` (stereo unspecified), the GI50 in assay [1] is 1.5 µM; in assay [2] it was 1.8 µM; in assay [3] it was 1.67 µM; in assay [4] it was 1.75 µM. The TGI in assay [1] was 2.99 µM; in assay [2], 3.46 µM; in assay [3], 3.22 µM; in assay [4], 3.47 µM.

On to `C=C1C(=O)O[C@H]2[C@H]1CC/C(COC(=O)OC/C1=C/CC[C@@]3(C)O[C@H]3[C@H]3OC(=O)[C@@H](CN(C)C)[C@@H]3CC1)=C\CC[C@@]1(C)O[C@@H]21`, for which the GI50 is 2.7 µM in assay [1], 2.27 µM in assay [2] and 1.13 µM in assay [3]. Moreover, the TGI in assay [1] is 7.89 µM; in assay [2], 5.88 µM; in assay [3], 2.35 µM.

For the compound `O=CN1N=C(c2cccc(Nc3ccnc4cc(Cl)ccc34)c2)CC1c1ccccc1` (stereo unspecified), the GI50 was 0.306 µM in assay [1], 0.258 µM in assay [2], 0.364 µM in assay [3] and 0.311 µM in assay [4]. The TGI in assay [1] is 42.7 µM; in assay [2], 0.825 µM; in assay [3] it was 1.63 µM; in assay [4], over 33 µM.

As for `O=C(C#Cc1ccccc1)C1=Cc2ccccc2OC1`, the TGI in assay [1] came out at 22.2 µM; in assay [2] it was 11.7 µM; in assay [3], 4.21 µM; in assay [4], 3.87 µM.

Regarding `CC(=O)O[C@H]1C(=O)[C@@]2(C)[C@H]([C@H](OC(=O)c3ccccc3)[C@]3(O)C[C@H](OC(=O)[C@H](OC(=O)OC[C@H]4COC(C)(C)O4)[C@@H](NC(=O)c4ccccc4)c4ccccc4)C(C)=C1C3(C)C)[C@]1(OC(C)=O)CO[C@@H]1C[C@@H]2O`, the GI50 in assay [1] is 0.0305 µM; in assay [2] it was 0.0978 µM; in assay [3], 0.00596 µM; in assay [4], 0.00506 µM. Besides, the TGI in assay [1], in assay [2], in assay [3] and in assay [4] was over 33.3 µM in each case.

As to `COc1ccc(/C=C2\SC(=Nc3ccccc3)NC2=O)cc1`, the GI50 was 7.69 µM in assay [1], 29.3 µM in assay [2], 3.4 µM in assay [3] and 2.68 µM in assay [4]. Further, the TGI in assay [1] was over 100 µM; in assay [2] it was 82.4 µM; in assay [3], 12.9 µM; in assay [4] it was 42.1 µM.

As for `O=C(Nc1ccc(F)cc1)Nc1ccc(Br)c(C(F)(F)F)c1`, the GI50 in assay [1] is 0.847 µM; in assay [2] it was 2.38 µM; in assay [3], 1.72 µM; in assay [4], 2.29 µM. The TGI in assay [1] came out at 9.24 µM; in assay [2] it was 6.19 µM; in assay [3], 9.33 µM; in assay [4], 10.3 µM.

Regarding `C[n+]1c2ccccc2nc2ccccc21`, the GI50 in assay [1] is 1.06 µM; in assay [2] it was 1.76 µM; in assay [3] it was 0.82 µM; in assay [4] it was 0.353 µM. The TGI in assay [1] was 12 µM; in assay [2], 4.54 µM; in assay [3], 2.89 µM; in assay [4] it was 1.59 µM.

With `CCOC1NC(=O)Oc2cc3ccccc3cc21` (stereo unspecified), the TGI in assay [1], in assay [3] and in assay [4] was over 100 µM throughout.

In the case of `COC(=O)c1c2c(c(C)[n+]([O-])c1C)C(=O)C=C(NCc1cccc(Cl)c1)C2=O`, the GI50 in assay [1] is 0.257 µM; in assay [2], 1.04 µM; in assay [3], 0.284 µM; in assay [4] it was 0.238 µM. The TGI in assay [1] was found to be 2.6 µM; in assay [2], 2.77 µM; in assay [3], 0.976 µM; in assay [4], 0.766 µM.

`COc1cc(OC)c(OC)cc1/C=C/c1cnnc2ccccc12`: the TGI in assay [1], in assay [2], in assay [3] and in assay [4] was over 10 µM throughout.

As for `Cc1c(Cl)cccc1NC(=O)/C=C/c1ccccc1`, the TGI in assay [1], in assay [2], in assay [3] and in assay [4] was over 100 µM each time.

With `C[C@H]1COCCN1c1cc(C2(S(=O)(=O)C3CC3)CC2)nc(-c2ccc(NC(=S)NCCO)cc2)n1`, the GI50 in assay [1] is under 0.013 µM; in assay [2], 0.0289 µM; in assay [3], 0.0985 µM; in assay [4] it was under 0.01 µM. In addition, the TGI in assay [1] was 38.7 µM; in assay [2] it was 0.517 µM; in assay [3], 21.4 µM; in assay [4] it was 18 µM.

Consider `CCCCCCCCCCCCCCCCCCNC(=S)/N=C/c1c(O)c2ccccc2[nH]c1=O`, for which the TGI in assay [2] was determined as 52.2 µM; in assay [3] it was 30.4 µM; in assay [4], 48.3 µM.

As for `Nc1nc(SCc2ccccc2Cl)cc(C(=O)O)n1`, the TGI in assay [1], in assay [2], in assay [3] and in assay [4] was over 100 µM throughout.

`CC(=O)OC12c3ccccc3-c3ccccc3C1C(C(=O)O)C2C(=O)O` (stereo unspecified): the TGI in assay [1], in assay [2] and in assay [4] was over 10 µM throughout.

Regarding `C=C1C(=O)O[C@H]2[C@H]1CC/C(Cn1cc(-c3ccc(F)cc3)nn1)=C\CC[C@@]1(C)O[C@@H]21`, the GI50 is 2 µM in assay [1], 1.83 µM in assay [2] and 0.295 µM in assay [3]. Also, the results for the TGI in assay [1], in assay [2] and in assay [3] were 4.07 µM, 3.94 µM and 1.21 µM, respectively.

Consider `COc1cc(C(=O)O[C@H](C(=O)NCCN(C)CCNC(=O)[C@@H](OC(=O)c2cc(OC)cc3c(C)cccc23)[C@]2(C)CO2)[C@]2(C)CO2)c2cccc(C)c2c1`, for which the GI50 in assay [2] was 0.253 µM; in assay [3], 0.0751 µM; in assay [4], under 0.01 µM. Moreover, the TGI in assay [2] is over 100 µM; in assay [3], 2.93 µM; in assay [4], 0.327 µM.

Turning to `CC1(C)OC(=O)C(C#N)=C1C[n+]1ccccc1`, the TGI in assay [1], in assay [2] and in assay [4] was over 10 µM throughout.

Consider `CC1(C)C2CCC1C(=O)[C@@]1(C=CC(=O)CC1)C2` (stereo partly specified), for which the TGI in assay [1], in assay [3] and in assay [4] was over 100 µM in each case.

The values are drawn from PubChem BioAssay (NCI).
